# Measurements taken from patent US20030181441A1, “TACE INHIBITORS” (priority 1998, published 2003).
# Key:
# Assay type in all cases: biochemical
# TACE = TACE (Homo sapiens, UniProt P78536); test: Recombinant TNFα converting enzyme (TACE) activity, fluorescent quenched substrate; settings: for MMP-1/TACE IC50 selectivity ratio: ratio of MMP-1 and TACE IC50 values
# From the text: Method for the Evaluation of Recombinant TNFα Converting Enzyme Activity.
# Preparation of Recombinant TACE:
# A DNA fragment coding for the signal sequence, prodomain and catalytic domain of TACE (amino acids […]), was amplified by polymerase chain reaction using a human lung cDNA library as a template. The amplified fragment was cloned into pFastBac vector. The DNA sequence of the insert was confirmed for both the strands. A bacmid prepared using pFastBac in E. coli DH10Bac was transfected into SF9 insect cells. The virus particles were amplified to P1, P2, P3 stages. The P3 virus was infected into both Sf9 and High Five insect cells and grown at 27° C. for 48 hours. The medium was collected and used for assays and further purification.
# Preparation of Fluorescent Quenched Substrate:
# A model peptidic TNF-α substrate (LY-LeucineAlanineGlutamineAlanineValine-ArginineSerine-SerineLysine(CMTR)-Arginine (LY=Lucifer Yellow; CMTR=5-carboxytetramethyl Rhodamine)) was prepared and the concentration estimated by absorbance at 560 nm (E560, 60,000 M-1CM-1) according to the method of Geoghegan, K F, “Improved method for converting an unmodified peptide to an energy-transfer substrate for a proteinase.” Bioconjugate Chem. 7, 385-391 (1995). This peptide encompasses the cleavage cite on pro-TNF which is cleaved in vivo by TACE.
# The reaction, carried out in a 96 well plate (Dynatech), was comprised of 70 μl of buffer solution (25 mM Hepes-HCl, pH 7.5, plus 20 uM ZnCl2), 10 μl of 100 μM fluorescent quenched substrate, 10 μl of a DMSO (5%) solution of test compound, and an amount of r-TACE enzyme which will cause 50% cleavage in 60 minutes—in a total volume of 100 μl. The specificity of the enzyme cleavage at the amide bond between alanine and valine was verified by HPLC and mass spectrometry. Initial rates of cleavage were monitored by measuring the rate of increase in fluorescence at 530 nm (excitation at 409 nm) over 30 minutes. The experiment was controlled as follows: 1) for background fluorescence of substrate; 2) for fluorescence of fully cleaved substrate; 3) for fluorescence quenching or augmentation from solutions containing test compound.
# The rates from the non-test compound containing “control” reactions were averaged to establish the 100% value. The rate of reaction in the presence of test compound was compared to that in the absence of compound, and tabulated as “percent of non-test compound containing control. The results were plotted as “% of control” vs. the log of compound concentration and a half-maximal point or IC50 value determined. The IC50 for the above assay is a measure of the inhibition of the TNF-α proteolytic activity of TACE. Blockage of binding of TNF-α to TACE as used herein is as described in U.S. Pat. No. 5,830,742, issued Nov. 3, 1998.
# MMP-1 = biological target: T1, MMP-1 (Homo sapiens, UniProt P03956); test: Inhibition of Human Collagenase (MMP-1), fluorescence assay
# T1 sequence (P03956 100-469): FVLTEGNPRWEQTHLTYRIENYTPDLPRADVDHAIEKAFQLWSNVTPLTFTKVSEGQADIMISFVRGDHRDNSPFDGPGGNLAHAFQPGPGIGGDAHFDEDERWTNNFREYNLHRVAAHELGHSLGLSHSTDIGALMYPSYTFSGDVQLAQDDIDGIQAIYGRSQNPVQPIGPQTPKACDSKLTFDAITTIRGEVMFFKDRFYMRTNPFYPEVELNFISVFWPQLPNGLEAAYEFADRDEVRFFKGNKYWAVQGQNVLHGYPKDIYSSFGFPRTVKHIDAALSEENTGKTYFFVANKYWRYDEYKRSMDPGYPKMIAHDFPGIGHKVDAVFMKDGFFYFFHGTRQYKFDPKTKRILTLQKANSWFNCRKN
# Method: Inhibition of Human Collagenase (MMP-1)
# Human recombinant collagenase is activated with trypsin using the following ratio: 10 μg trypsin per 100 μg of collagenase. The trypsin and collagenase are incubated at room temperature for 10 minutes then a five fold excess (50 μg/10 μg trypsin) of soybean trypsin inhibitor is added.
# 10 mM stock solutions of inhibitors are made up in dimethyl sulfoxide and then diluted using the following Scheme:
# Twenty-five microliters of each concentration is then added in triplicate to appropriate wells of a 96 well microfluor plate. The final concentration of inhibitor will be a 1:4 dilution after addition of enzyme and substrate. Positive controls (enzyme, no inhibitor) are set up in wells D1-D6 and blanks (no enzyme, no inhibitors) are set in wells D7-D12.
# Collagenase is diluted to 400 ng/ml and 25 μl is then added to appropriate wells of the microfluor plate. Final concentration of collagenase in the assay is 100 ng/ml.
# Substrate (DNP-Pro-Cha-Gly-Cys(Me)-His-Ala-Lys(NMA)-NH2) is made as a 5 mM stock in dimethyl sulfoxide and then diluted to […] in assay buffer. The assay is initiated by the addition of 50 μl substrate per well of the microfluor plate to give a final concentration of […] Fluorescence readings (360 nm excitation, 460 nm emission) were taken at time 0 and then at 20 minute intervals. The assay is conducted at room temperature with a typical assay time of 3 hours.
# Fluorescence vs time is then plotted for both the blank and collagenase containing samples (data from triplicate determinations is averaged). […] The zero time is used as a blank for each compound at each concentration and these values are subtracted from the 120 minute data. Data is plotted as inhibitor concentration vs % control (inhibitor fluorescence divided by fluorescence of collagenase alone×100). IC50's are determined from the concentration of inhibitor that gives a signal that is 50% of the control.
# If IC50's are reported to be <0.03 μM then the inhibitors are assayed at concentrations of 0.3 μM, 0.03 μM, […].
# MMP-13 = MMP-13 (Homo sapiens, UniProt P45452); test: Inhibition of MMP-13, fluorescence assay
# Method: Human recombinant MMP-13 is activated with 2 mM APMA (p-aminophenyl mercuric acetate) for 1.5 hours, at 37° C. and is diluted to […] in assay buffer (50 mM Tris, pH 7.5, 200 mM sodium chloride, 5 mM calcium chloride, 20 μM zinc chloride, 0.02% brij). Twenty-five microliters of diluted enzyme is added per well of a 96 well microfluor plate. The enzyme is then diluted in a 1:4 ratio in the assay by the addition of inhibitor and substrate to give a final concentration in the assay of […].
# 10 mM stock solutions of inhibitors are made up in dimethyl sulfoxide and then diluted in assay buffer as per the inhibitor dilution scheme for inhibition of human collagenase (MMP-1): Twenty-five microliters of each concentration is added in triplicate to the microfluor plate. The final concentrations in the assay are 30 μM, 3 μM, 0.3 μM, and 0.03 μM.
# Substrate (Dnp-Pro-Cha-Gly-Cys(Me)-His-Ala-Lys(NMA)—NH2) is prepared as for inhibition of human collagenase (MMP-1) and […] is added to each well to give a final assay concentration of 10 μM. Fluorescence readings (360 nm excitation; 450 emission) are taken at time 0 and every 5 minutes for 1 hour.
# Positive controls consist of enzyme and substrate with no inhibitor and blanks consist of substrate only.
# IC50's are determined as per inhibition of human collagenase (MMP-1). If IC50's are reported to be less than 0.03 μM, inhibitors are then assayed at final concentrations of 0.3 μM, 0.03 μM, 0.003 μM and 0.0003 μM.
# Chain of TACE (P78536 223-474): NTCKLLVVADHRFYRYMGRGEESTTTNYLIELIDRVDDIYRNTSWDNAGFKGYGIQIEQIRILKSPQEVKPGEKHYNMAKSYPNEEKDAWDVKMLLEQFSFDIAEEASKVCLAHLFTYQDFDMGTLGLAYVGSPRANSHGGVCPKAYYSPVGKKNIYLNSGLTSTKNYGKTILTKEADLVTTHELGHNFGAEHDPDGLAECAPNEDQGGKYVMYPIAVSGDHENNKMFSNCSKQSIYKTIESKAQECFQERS
IC50 (TACE) [nM],MMP-1/TACE IC50 selectivity ratio (TACE),IC50 (MMP-1) [nM],IC50 (MMP-13) [nM],SMILES
7.4,46.6,345,5,CC1(C)[C@H](C(=O)NO)N(S(=O)(=O)c2ccc(OCc3ccc(F)cc3)cc2)CC[S+]1[O-] (some centres unmarked)
7.2,42.4,305,1.4,CC1(C)[C@H](C(=O)NO)N(S(=O)(=O)c2ccc(OCc3ccc(F)cc3)cc2)CCS1(=O)=O
25,299,7480,8,C[C@@H]1NCCN(S(=O)(=O)c2ccc(OCc3ccccc3)cc2)[C@H]1C(=O)NO
19,558,10600,18,Cc1ccccc1COc1ccc(S(=O)(=O)N2CCN[C@@H](C)[C@@H]2C(=O)NO)cc1
6.2,258,1600,3,CC(=O)N1CCN(S(=O)(=O)c2ccc(OCc3ccccc3C)cc2)[C@@H](C(=O)NO)[C@@H]1C
10,350,3500,88,Cc1ccc(C)c(COc2ccc(S(=O)(=O)N3C[C@H](C)O[C@@H](C)[C@@H]3C(=O)NO)cc2)c1
4.5,311,1400,1,C[C@@H]1O[C@@H](CO)CN(S(=O)(=O)c2ccc(OCc3ccc(F)cc3)cc2)[C@H]1C(=O)NO
12,167,2000,6,C[C@@H]1O[C@@H](C)CN(S(=O)(=O)c2ccc(OCc3ccncc3)cc2)[C@H]1C(=O)NO
